Here are results for 11 compounds from paper PMC6471528, “Biological Evaluation and Molecular Docking Studies of Dimethylpyridine Derivatives” (Molecules, 2019).

In assay [1] the test system is V79 (fibroblast from Chinese hamster lung). The assay can be described thus: Sulforhodamine B cytotoxicity assay, V79. It counts as cell-based. The note with it: Cricetulus griseus, SRB assay, 48 h, mean (SD), n = 3. An excerpt: (§1) The sulforhodamine B assay was used to estimate the cytotoxic properties of the compounds. The cytotoxic activity of dimethylpyridine derivatives was studied against human cancer cell lines: A549 (pulmonary basal cell alveolar adenocarcinoma) and LoVo (colon adenocarcinoma). Additionally, the effect of compounds on NHDF (normal human dermal fibroblasts) and normal cell line V79 (fibroblast from Chinese hamster lung) was examined.
(§2) Normal human dermal fibroblasts (NHDF) from adult donors were purchased from Lonza (Verviers, Belgium). Normal cell line V79 (fibroblast from Chinese hamster lung) and human cancer cell lines, A549 (pulmonary basal cell alveolar adenocarcinoma) and LoVo (colon adenocarcinoma) were obtained from the European Collection of Authenticated Cell Cultures (ECACC).
(§3) Cells were grown in the culture media recommended by the cell line supplier. Before the test, adherent cells were detached with the trypsin EDTA solution, and FBS-containing medium was used to neutralize the effects of the trypsin/EDTA solution. After that, cells were spun down, counted, stained with a 0.4% solution of trypan blue and inspected under a microscope for cell viability. Then, cells were placed on 96-well plastic culture plates (2 × 10^3 cells/well) and incubated at 37 °C in a CO2-incubator for 24 h. Afterwards, all the tested compounds were added at appropriate final concentrations (100 µM, 50 µM, 20 µM, 10 µM, 5 µM), and the cultures were incubated for 48 h in CO2-incubator at 37 °C. Finally, cells were harvested and intended for the cell proliferation test.
(§4) Cell density/cell proliferation was estimated with the sulforhodamine B (SRB)-colorimetric assay. Briefly, cell cultures were fixed with cold TCA (final concentration 10% (w/v) in cultures of adherent cells for 1 h at 4 °C, then washed four times with tap water and air-dried at room temperature (20–25 °C). A mildly-acidic SRB solution (0.4% dye solution in 1% acetic acid) was added to each well for 30 min at 25 °C. Then, the unbound stain was removed by rinsing with an aqueous solution of 1% (v/v) acetic acid. Culture plates were then allowed to dry at room temperature. The protein-bound dye was dissolved in 10 mM Tris base solution (pH 10.5) for 10 min on a gyratory shaker. Absorbance of the SRB solution was estimated at 540 nm in a Victor 2 microplate reader (Perkin-Elmer, Waltham, MA, USA).
(In SRB staining, fixed cells bind dye roughly in proportion to their protein.)

In assay [2] the test system is A549 (pulmonary basal cell alveolar adenocarcinoma). In words: Sulforhodamine B cytotoxicity assay, A549. Particulars: Homo sapiens, SRB assay, 48 h, mean (SD), n = 3. It counts as cell-based.
Description: as §1, §2, §3, §4

Assay [3] relates to LoVo (colon adenocarcinoma). The assay can be described thus: Sulforhodamine B cytotoxicity assay, LoVo. It counts as cell-based. Particulars: Homo sapiens, SRB assay, 48 h, mean (SD), n = 3.
Description: as §1, §2, §3, §4

Assay [4] concerns NHDF (normal human dermal fibroblasts). The assay can be described thus: Sulforhodamine B cytotoxicity assay, NHDF. It counts as cell-based. The note with it: SRB assay, 48 h, mean (SD), n = 3.
Description: as §1, §2, §3, §4

The target of assay [5] is T1, COX-2 (Homo sapiens, UniProt P35354).
T1 construct: purchased Cayman Chemical Company
T1 sequence (P35354 18-604): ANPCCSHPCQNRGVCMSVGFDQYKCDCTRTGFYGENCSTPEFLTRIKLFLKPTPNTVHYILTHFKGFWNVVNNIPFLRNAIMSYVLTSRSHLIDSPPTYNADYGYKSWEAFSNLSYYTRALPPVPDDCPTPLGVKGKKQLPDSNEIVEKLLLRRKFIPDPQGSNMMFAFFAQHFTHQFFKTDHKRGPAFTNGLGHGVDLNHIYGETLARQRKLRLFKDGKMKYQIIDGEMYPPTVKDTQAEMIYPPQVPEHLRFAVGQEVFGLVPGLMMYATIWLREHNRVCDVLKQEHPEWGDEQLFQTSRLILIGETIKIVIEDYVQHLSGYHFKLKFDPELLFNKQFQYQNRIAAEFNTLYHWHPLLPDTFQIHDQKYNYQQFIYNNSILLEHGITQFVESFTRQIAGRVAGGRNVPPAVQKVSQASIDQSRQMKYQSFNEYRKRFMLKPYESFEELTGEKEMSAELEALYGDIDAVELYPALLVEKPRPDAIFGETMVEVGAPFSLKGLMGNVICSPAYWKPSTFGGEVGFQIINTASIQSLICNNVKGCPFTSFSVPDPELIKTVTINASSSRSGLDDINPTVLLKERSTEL
The assay can be described thus: COX colorimetric inhibitor screening assay (TMPD oxidation), COX-2. It counts as biochemical. Particulars: for Ratio: COX-2/COX-1: ratio of IC50 values COX-2/COX-1; for IC50: read-out: IC50 (µM),(SD) COX-2; for inhibitory activity on COX-2 (in words): 2 min of incubation. How it is done:
(§5) The compounds were investigated for their potencies to inhibit COX-1 and COX-2 enzymes by the colorimetric inhibitor screening assay.
(§6) Selectivity of the compounds to COX-1 or to COX-2 was assessed by calculation of the IC50 ratios.
(§7) This method allows one to estimate the peroxidase activity of COX by colorimetric monitoring of the occurrence of the oxidized form of N,N,N′,N′-tetramethyl-p-phenylenediamine (TMPD) at 590 nm. TMPD is a substrate for most enzymes with peroxidase activity, and high throughput microplate assays using TMPD allow the rapid screening of a wide range of therapeutics that inhibit COX activity in vitro.
(§8) The test is based on the oxidation of TMPD during the reduction of PGG2 (prostaglandin G2) to PGH2, which is reflected by a change in colour, measured spectrophotometrically (Victor2 microspectrophotometer, PerkinElmer Waltham, MA, USA). The assay uses Tris-HCl buffer (0.1 M assay buffer, pH 8.0), a solution of heme in dimethylsulfoxide (DMSO), enzymes (COX-1, COX-2), arachidonic acid (100 μM), KOH (0.1 M) and a solution of TMPD. The assay mixture contains: 150 µL of assay buffer, 10 µL of heme and 10 µL of COX-1 or COX-2. In order to determine 100% enzyme activity (each COX sample was assayed in triplicate), 10 µL of the substances used as solvents (methanol, ethanol, DMSO) was added to the wells. Ten microlitres of tested inhibitors at appropriate concentrations were added to the other wells. Twenty microlitres of TMPD were added to all wells. The reaction was initiated by the addition of arachidonic acid.
(§9) The effect of tested inhibitors on COX-1 and COX-2 enzyme activity was measured by assaying the rate of TMPD oxidation within 2 min in a spectrophotometer at 590 nm.
(§10) The activity factor at 2 min of incubation with the tested compounds in comparison to the initial activity of the enzyme was determined.

Assay [6] deals with T2, COX-1 (Ovis aries, UniProt P05979).
T2 construct: purchased Cayman Chemical Company
T2 sequence (P05979 25-600): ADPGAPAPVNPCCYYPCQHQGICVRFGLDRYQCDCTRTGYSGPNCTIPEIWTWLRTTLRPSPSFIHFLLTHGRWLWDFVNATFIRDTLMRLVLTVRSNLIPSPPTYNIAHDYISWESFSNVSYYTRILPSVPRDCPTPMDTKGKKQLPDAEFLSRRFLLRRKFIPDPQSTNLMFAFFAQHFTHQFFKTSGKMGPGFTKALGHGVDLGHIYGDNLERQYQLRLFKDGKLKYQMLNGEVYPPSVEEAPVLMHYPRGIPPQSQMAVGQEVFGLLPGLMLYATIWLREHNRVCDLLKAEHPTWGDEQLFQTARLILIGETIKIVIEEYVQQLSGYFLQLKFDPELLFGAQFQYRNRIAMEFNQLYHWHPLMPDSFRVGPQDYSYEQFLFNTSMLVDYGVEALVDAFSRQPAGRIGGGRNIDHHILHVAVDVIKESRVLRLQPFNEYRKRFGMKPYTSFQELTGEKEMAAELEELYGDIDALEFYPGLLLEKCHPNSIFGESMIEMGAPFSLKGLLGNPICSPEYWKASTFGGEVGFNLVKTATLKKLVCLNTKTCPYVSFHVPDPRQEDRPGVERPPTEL
The assay can be described thus: COX colorimetric inhibitor screening assay (TMPD oxidation), COX-1. The format is biochemical. Particulars: for IC50: read-out: IC50 (µM),(SD) COX-1; for inhibitory activity on COX-1 (in words): 2 min of incubation. How it is done:
as §5, §6, §7, §8, §9, §10

As a reminder, the IC50 is the concentration that gives 50% inhibition. In the case of `Cc1cnc(NC(=O)C2=C(O)c3ccccc3S(=O)(=O)N2C)s1` [Meloxicam, reference compound], the IC50 in assay [1] came out at 232 µM; in assay [2], 148 µM; in assay [3] it was 125 µM; in assay [4], 206 µM.
As to `Cc1cc(C)c(C(=O)NCC(=O)N/N=C/c2ccccc2)c(S)n1` [PS18, N′-phenylmethylene derivative], the IC50 was 275 µM in assay [1]; 139 µM in assay [5]; 57.3 µM in assay [6]; 154 µM in assay [2]; 135 µM in assay [3]; 171 µM in assay [4]. Also, the “Ratio: COX-2/COX-1” value in assay [5] amounted to 2.4.
For `Cc1ccc(/C=N/NC(=O)CNC(=O)c2c(C)cc(C)nc2S)cc1` [PS33, N′-4-methylphenylmethylene derivative], the IC50 came out at 178 µM in assay [1]; 143 µM in assay [5]; 51.8 µM in assay [6]; 156 µM in assay [2]; 131 µM in assay [3]; 159 µM in assay [4]. The “Ratio: COX-2/COX-1” value in assay [5] amounted to 2.8.
Regarding `Cc1cc(C)c(C(=O)NCC(=O)N/N=C/c2cccc3ccccc23)c(S)n1` [PS34, N′-naphtylmethylene derivative], the IC50 in assay [1] is 421 µM. The “inhibitory activity on COX-2 (in words)” value in assay [5] is “no inhibitory activity”. The “inhibitory activity on COX-1 (in words)” value in assay [6] is reported as “no inhibitory activity”.
For `Cc1cc(C)c(C(=O)NCC(=O)N/N=C/c2c3ccccc3cc3ccccc23)c(S)n1` [PS35], the IC50 is 196 µM in assay [1], 212 µM in assay [3] and 202 µM in assay [4]. The “inhibitory activity on COX-2 (in words)” value in assay [5] is listed as “no inhibitory activity”. Also, the “inhibitory activity on COX-1 (in words)” value in assay [6] is reported as “no inhibitory activity”.
`Cc1cc(C)c(C(=O)NCC(=O)N/N=C/c2ccc([N+](=O)[O-])cc2)c(S)n1` [PS36]: the IC50 in assay [1] is 141 µM; in assay [5], 731 µM; in assay [2], 164 µM; in assay [3], 99.8 µM; in assay [4], 144 µM. For the same compound, the “inhibitory activity on COX-1 (in words)” value in assay [6] is “did not show any inhibitory activity”.
Regarding `Cc1cc(C)c(C(=O)NCC(=O)N/N=C/c2ccc(C(F)(F)F)cc2)c(S)n1` [PS38], the IC50 in assay [1] worked out at 172 µM; in assay [2] it was 504 µM. The “inhibitory activity on COX-2 (in words)” value in assay [5] is “no inhibitory activity”. Moreover, the “inhibitory activity on COX-1 (in words)” value in assay [6] is reported as “no inhibitory activity”.
With `Cc1cc(C)c(C(=O)NCC(=O)N/N=C/c2cc([N+](=O)[O-])ccc2Cl)c(S)n1` [PS39], the half-inhibitory concentration (IC50) in assay [1] turned out to be 147 µM; in assay [2], 120 µM; in assay [3], 103 µM; in assay [4], 391 µM. Besides, in assay [5], the “inhibitory activity on COX-2 (in words)” value was “no inhibitory activity”. The “inhibitory activity on COX-1 (in words)” value in assay [6] is reported as “no inhibitory activity”.
For the compound `Cc1cc(C)c(C(=O)NCC(=O)N/N=C/c2ccc(Cl)cc2Cl)c(S)n1` [PS41], the IC50 is 418 µM in assay [1], 220 µM in assay [2], 154 µM in assay [3] and 336 µM in assay [4]. Moreover, the “inhibitory activity on COX-2 (in words)” value in assay [5] was “no inhibitory activity”. For the same compound, the “inhibitory activity on COX-1 (in words)” value in assay [6] was “no inhibitory activity”.
For the compound `CCOc1ccccc1/C=N/NC(=O)CNC(=O)c1c(C)cc(C)nc1S` [PS42], the IC50 in assay [1] is 162 µM; in assay [5], 177 µM; in assay [6], 72.8 µM; in assay [2], 140 µM; in assay [3] it was 133 µM; in assay [4], 132 µM. Moreover, in assay [5], the “Ratio: COX-2/COX-1” value was determined as 2.4.
With `CN1C(C(=O)Nc2ccccn2)=C(O)c2ccccc2S1(=O)=O` [Piroxicam, reference compound], the IC50 is 200 µM in assay [1], 138 µM in assay [2] and 122 µM in assay [3].
